Read-outs that look alike come from different tables or passages of the source.
Experiments:
Format in all cases: in vivo
[1] = system: Yellow Fever Mosquito (Aedes aegypti, AEDSAE); assay: Bioassay on Yellow Fever Mosquito (YFM) larvae, 96-well plate; conditions: about 1 day-old larvae, room temperature, 3 days, scored on mortality
Experimental: Certain molecules disclosed in this document were tested against YFM using procedures described in the following paragraph. In the reporting of the results, the “GPA & YFM Rating Table” was used (See Table Section).
Master plates containing 400 μg of a molecule dissolved in 100 μL of dimethyl sulfoxide (DMSO) (equivalent to a 4000 ppm solution) are used. A master plate of assembled molecules contains 15 μL per well. To this plate, 135 μL of a 90:10 water/acetone mixture is added to each well. A robot is programmed to dispense 15 μL aspirations from the master plate into an empty 96-well shallow plate (“daughter” plate). There are 6 reps (“daughter” plates) created per master. The created “daughter” plates are then immediately infested with YFM larvae.
The day before plates are to be treated, mosquito eggs are placed in Millipore water containing liver powder to begin hatching (4 g. into 400 mL). After the “daughter” plates are created using the robot, they are infested with 220 μL of the liver powder/larval mosquito mixture (about 1 day-old larvae). After plates are infested with mosquito larvae, a non-evaporative lid is used to cover the plate to reduce drying. Plates are held at room temperature for 3 days prior to grading. After 3 days, each well is observed and scored based on mortality. The results are indicated in the table entitled “Table ABC: Biological Results” (See Table Section).

[2] = system: Beet Armyworm (Spodoptera exigua, LAPHEG); assay: Bioassay on Beet Armyworm (BAW), 128-well diet tray assay; conditions: 168 h, read-out: BAW % Control (or Mortality) rating
Experimental: (§1) Certain molecules disclosed in this document were tested against BAW and CL using procedures described in the following examples. In the reporting of the results, the “BAW & CL Rating Table” was used (See Table Section).
Bioassays on BAW were conducted using a 128-well diet tray assay. One to five second instar BAW larvae were placed in each well (3 mL) of the diet tray that had been previously filled with approximately 1.5 mL of artificial diet to which 50 μg/cm^2 of the test molecule (dissolved in 50 μL of 90:10 acetone-water mixture) had been applied (to each of eight wells) and then allowed to dry. Trays were covered with a clear self-adhesive cover, vented to allow gas exchange, and held at 25° C., 14:10 light-dark for five to seven days. Percent mortality was recorded for the larvae in each well; activity in the eight wells was then averaged. The results are indicated in the table entitled “Table ABC: Biological Results” (See Table Section).

[3] = system: Cabbage Looper (Trichoplusia ni, TRIPNI); assay: Bioassay on Cabbage Looper (CL), 128-well diet tray assay; conditions: 168 h, read-out: CL % Control (or Mortality) rating
Experimental: as §1
Bioassays on CL were conducted using a 128-well diet tray assay, one to five second instar CL larvae were placed in each well (3 mL) of the diet tray that had been previously filled with 1 mL of artificial diet to which 50 μg/cm^2 of the test molecule (dissolved in 50 μL of 90:10 acetone-water mixture) had been applied (to each of eight wells) and then allowed to dry. Trays were covered with a clear self-adhesive cover, vented to allow gas exchange, and held at 25° C., 14:10 light-dark for five to seven days. Percent mortality was recorded for the larvae in each well; activity in the eight wells was then averaged. The results are indicated in the table entitled “Table ABC: Biological Results” (See Table Section).

[4] = 50 μg/cm^2 on artificial diet, second instar larvae, 25° C., five to seven days, average of eight wells

SMILES | YFM % Control (or Mortality) rating [1] | mortality at 50 µg/cm2 [2, 4] [%] | mortality at 50 µg/cm2 [3, 4] [%] | mortality at 50 µg/cm2 [2] [%] | mortality at 50 µg/cm2 [3] [%]
O=C(NCC(F)(F)F)c1cc(NC(=O)[C@H]2[C@H](c3cc(Cl)cc(Cl)c3)C2(Br)Br)ccc1Cl (relative stereo) [PF1, trans-2-Chloro-5-(2,2-dibromo-3-(3,5-dichlorophenyl)cyclopropane-1-carboxamido)-N-(2,2,2-trifluoroethyl)benzamide] | D (No activity noticed in this bioassay) | 50 to 100 | 50 to 100 | – | –
O=C(NCC(F)(F)F)c1cc(NC(=O)[C@H]2[C@H](c3ccc(C(F)F)c(Cl)c3)C2(Cl)Cl)ccc1Cl (relative stereo) [F132, 2-Chloro-5-(trans-2,2-dichloro-3-(3-chloro-4-(difluoromethyl)phenyl)cyclopropane-1-carboxamido)-N-(2,2,2-trifluoroethyl)benzamide] | A (80-100) | 50 to 100 | 50 to 100 | – | –
O=C(NCC(F)(F)C(F)(F)C(F)(F)F)c1cc(NC(=O)[C@H]2[C@H](c3cc(Cl)cc(Cl)c3)C2(Cl)Cl)ccc1Cl (relative stereo) [F61, trans-2-Chloro-5-(2,2-dichloro-3-(3,5-dichlorophenyl)cyclopropane-1-carboxamido)-N-(2,2,3,3,4,4,4-heptafluorobutyl)benzamide] | D (No activity noticed in this bioassay) | 50 to 100 | 50 to 100 | – | –
O=C(NCCC(F)(F)F)c1cc(NC(=O)[C@H]2[C@H](c3cc(Cl)cc(Cl)c3)C2(Cl)Cl)c(Cl)cc1Cl (relative stereo) [F102, trans-2,4-Dichloro-5-(2,2-dichloro-3-(3,5-dichlorophenyl)cyclopropane-1-carboxamido)-N-(3,3,3-trifluoropropyl)benzamide] | A (80-100) | 0 to 50 | 0 | – | –
O=C(NCC(F)(F)F)c1cc(NC(=O)[C@H]2[C@H](c3ccc(F)c(C(F)(F)F)c3)C2(Cl)Cl)ccc1Cl (relative stereo) [F119, 2-Chloro-5-(trans-2,2-dichloro-3-(4-fluoro-3-(trifluoromethyl)phenyl)cyclopropane-1-carboxamido)-N-(2,2,2-trifluoroethyl)benzamide] | A (80-100) | 50 to 100 | 50 to 100 | – | –
O=C(NCC(F)(F)F)c1cc(NC(=O)[C@H]2[C@H](c3cc(Cl)cc(C(F)F)c3)C2(Cl)Cl)ccc1Cl (relative stereo) [F128, 2-Chloro-5-(trans-2,2-dichloro-3-(3-chloro-5-(difluoromethyl)phenyl)cyclopropane-1-carboxamido)-N-(2,2,2-trifluoroethyl)benzamide] | A (80-100) | 50 to 100 | 50 to 100 | – | –
O=C(NCCn1cccn1)c1cc(NC(=O)[C@H]2[C@H](c3cc(Cl)cc(Cl)c3)C2(Cl)Cl)ccc1Cl (relative stereo) [PF13, trans-N-(2-(1H-Pyrazol-1-yl)ethyl)-2-chloro-5-(2,2-dichloro-3-(3,5-dichlorophenyl)cyclopropane-1-carboxamido)benzamide] | A (80-100) | 50 to 100 | 50 to 100 | – | –
CC(NC(=O)c1cc(NC(=O)[C@H]2[C@H](c3cc(Cl)cc(Cl)c3)C2(Cl)Cl)ccc1Cl)c1ccc(F)cc1 (relative stereo) [F96, 2-chloro-5-(trans-2,2-dichloro-3-(3,5-dichlorophenyl)cyclopropane-1-carboxamido)-N-(1-(4-fluorophenyl)ethyl)benzamide] | A (80-100) | 50 to 100 | 50 to 100 | – | –
O=C(NCC(F)(F)F)c1cc(NC(=O)[C@H]2[C@H](c3ccc(F)c(F)c3)C2(Cl)Cl)ccc1Cl (relative stereo) [F108, 2-chloro-5-(trans-2,2-dichloro-3-(3,4-difluorophenyl)cyclopropane-1-carboxamido)-N-(2,2,2-trifluoroethyl)benzamide] | A (80-100) | – | – | 50 to 100 | 50 to 100
CCOCCNC(=O)c1cc(NC(=O)[C@H]2[C@H](c3cc(Cl)cc(Cl)c3)C2(Cl)Cl)ccc1Cl (relative stereo) [F54, trans-2-Chloro-5-(2,2-dichloro-3-(3,5-dichlorophenyl)cyclopropane-1-carboxamido)-N-(2-ethoxyethyl)benzamide] | B (More than 0-Less than 80) | 50 to 100 | 50 to 100 | – | –
O=C(NCC(F)(F)F)c1cc(NC(=O)[C@H]2[C@H](c3ccc(Br)c(C(F)(F)F)c3)C2(Cl)Cl)ccc1Cl (relative stereo) [F115, 5-(trans-3-(4-Bromo-3-(trifluoromethyl)phenyl)-2,2-dichlorocyclopropane-1-carboxamido)-2-chloro-N-(2,2,2-trifluoroethyl)benzamide] | A (80-100) | 50 to 100 | 50 to 100 | – | –
CCCNC(=O)c1cc(NC(=O)[C@H]2[C@H](c3cc(Cl)cc(Cl)c3)C2(Cl)Cl)c(Cl)cc1Cl (relative stereo) [F101, trans-2,4-Dichloro-5-(2,2-dichloro-3-(3,5-dichlorophenyl)cyclopropane-1-carboxamido)-N-propylbenzamide] | D (No activity noticed in this bioassay) | 0 | 0 | – | –
O=C(NCC(F)(F)F)c1cc(NC(=O)[C@H]2[C@H](c3cc(F)cc(C(F)(F)F)c3)C2(Cl)Cl)ccc1Cl (relative stereo) [F122, 2-Chloro-5-(trans-2,2-dichloro-3-(3-fluoro-5-(trifluoromethyl)phenyl)cyclopropane-1-carboxamido)-N-(2,2,2-trifluoroethyl)benzamide] | A (80-100) | 50 to 100 | 50 to 100 | – | –
CNC(=O)c1cc(NC(=O)[C@H]2[C@H](c3cc(Cl)cc(Cl)c3)C2(Cl)Cl)ccc1Cl (relative stereo) [F1, trans-2-chloro-5-(2,2-dichloro-3-(3,5-dichlorophenyl)cyclopropane-1-carboxamido)-N-methylbenzamide] | A (80-100) | 50 to 100 | 50 to 100 | – | –
COCCN(C)C(=O)c1cc(NC(=O)[C@H]2[C@H](c3cc(Cl)cc(Cl)c3)C2(Cl)Cl)ccc1Cl (relative stereo) [F67, trans-2-Chloro-5-(2,2-dichloro-3-(3,5-dichlorophenyl)cyclopropane-1-carboxamido)-N-(2-methoxyethyl)-N-methylbenzamide] | D (No activity noticed in this bioassay) | 50 to 100 | 50 to 100 | – | –
COc1c(Cl)cc([C@H]2[C@H](C(=O)Nc3ccc(Cl)c(C(=O)NCCC(F)(F)F)c3)C2(Cl)Cl)cc1Cl (relative stereo) [F88, trans-2-Chloro-5-(2,2-dichloro-3-(3,5-dichloro-4-methoxyphenyl)cyclopropane-1-carboxamido)-N-(3,3,3-trifluoropropyl)benzamide] | B (More than 0-Less than 80) | 50 to 100 | 50 to 100 | – | –
CCNC(=O)c1cc(NC(=O)[C@H]2[C@H](c3cc(Cl)c(OC)c(Cl)c3)C2(Cl)Cl)ccc1Cl (relative stereo) [F85, trans-2-Chloro-5-(2,2-dichloro-3-(3,5-dichloro-4-methoxyphenyl)cyclopropane-1-carboxamido)-N-ethylbenzamide] | B (More than 0-Less than 80) | 50 to 100 | 50 to 100 | – | –
